Data on two compounds can be found in patent US20020042403A1, “Use of vitamin D analogs to treat conditions related to increased oxidative stress” (priority 1998, published 2002).

The test system of data set [1] is human neutrophils. Briefly: chemotaxis in human neutrophils, multiwell chamber with FLPM. Format: cell-based. The conditions noted are these: higher concentrations of FLPM as chemotactic factor. The text has this: For chemotaxis assay, chemotactic solution (medium 199 containing 0.5% BSA and FLPM) and multiwell chamber were used. The numbers of migrated neutrophils for different concentrations of FLPM (as a chemotactic factor) were within the usually observable range (see Table 4 in the Appendix). […] Despite this, the data are consistent with the effects of these compounds on superoxide release. Both ST-630 and calcitriol appear to be inhibitory when higher concentrations of FLPM were used.

For data set [2], the system named is cultured keratinocytes. The note with it: cited from earlier work.
Data set [3] deals with Propionibacterium acnes. Briefly: antibacterial disc inhibition zone test. Format: cell-based. The conditions noted are these: 6 mm filter paper discs, 48 hr at 36° C. As to the method: Propionibacterium acnes, the target of inflammation in acne, was tested for its sensitivity to ST-630 and calcitriol using the inhibition method standardly employed for assessment of antibiotic efficiency. The strain (lyophilized) P. acnes (batch # 96-09SV) was received from the US type culture collection (Rockville, Md.). It was revitalized in 0.5 ml freshly boiled (10 min) reinforced Clostridial medium. ST-630 or calcitriol dissolved in 5.0 μl DMSO were applied onto the top of sterilized discs made of filter paper (6 mm). Erythromycin (15 μg) and DMSO (5.0 μl) were used as controls (positive and negative, respectively). The plates were incubated for 48 hr at 36° C. and the diameter of the inhibition zone was measured. […] The antibacterial activity of ST-630 at concentration 12.8 μg was about 2.7-fold lower than that of 15 μg of erythromycin. We conclude that ST-630 (but not calcitriol) exerts a significant inhibitory antibacterial activity towards P. acnes.

The test system of data set [4] is human neutrophils (PMNLs). Briefly: oxidative burst (superoxide production, cytochrome c reduction) in human neutrophils. Format: cell-based. The text has this:
This example provides studies of oxidative burst and chemotaxis in human neutrophils. Oxidative (respiratory) burst in polymorphonuclear nuetrophils (PMN) is a major mechanism of defense against bacterial and/or viral pathogens. Oxidative burst is a complex process resulting in the generation by PMN of a huge amount of oxygen free radicals (superoxide and hydroxyl radicals) and chemically reactive substances—hydrogen peroxide and hypochlorite. The mechanism of cell activation involves such steps as increase of intracellular Ca^2+ concentration upon the interaction of activator, increasing the activity of protein kinase C, activation of NADPH oxidase with subsequent generation of superoxide radicals and hydrogen peroxide in the phagosomes and in the surrounding area, releasing and activation of myeloperoxidase and production of hypochlorite (HOCL).
The respiratory burst in PMNLs (isolated from fresh heparinized whole blood by dextran sedimentation) was initiated by the addition of N-formylmethionyl-leucyl-phenylalanine-methylester, FLPM (10^−7M), phorbol12,13-miristate, acetate, PMA (0.01 μg/ml) and opsonized zimozan (1.0 mg/ml). Superoxide production was assayed by the superoxide dismutase-22 inhibitable reduction of cytochrome c. […]

In data set [5] the test system is keratinocytes. Briefly: cis-parinaric acid (PnA) assay of AMVN-induced phospholipid oxidation in live keratinocytes. Format: cell-based, human. As to the method: Comparison of the Antioxidant Potency of ST-630 with that of Calcitriol and Alpha-Tocopherol in Live Keratinocytes Using the Cis-parinaric Acid (PnA) assay […].
Keratinocytes were incubated in the presence of a complex of PnA with human serum albumin (PnA-HSA) for up to […] to incorporate PnA into cellular phospholipids. […] The incorporation of PnA in the various phospholipids was differential and the amount of PnA incorporated was in the following order: PC>PEA>PI>PS>SPH>DPG. The constituent phospholipids were separated from the total lipid extract by HPLC. Major fluorescence peaks were identified using authentic phospholipids standards including DPG, PI, PEA, PS, PC and SPH.
To determine the effects of ST-630 on keratinocytes subjected to oxidative stress cell suspensions labeled with PnA were incubated with or without ST-630 (5-500 nM) in the dark at 37° C. for 1 hr in the presence of […] AMVN. Based on the known rate constant of AMVN decomposition under the experimental conditions employed (Niki, 1990), at 0.5 mM it can be estimated that 2.4 nanomoles (nmoles) of peroxyl radicals are generated per hour at 37° C. in each incubation containing 10^6 cells. Incubation of keratinocytes with AMVN for 1 hr induced significant oxidation of all the detected phospholipids.

In data set [6] the test system is human keratinocyte cells. Briefly: AMVN-induced hypodiploidy (apoptosis) in keratinocytes, flow cytometric analysis. Format: cell-based. The text has this:
Nucleus/DNA of cells treated with chemical or physical agents undergo changes primarily by the activation of the nucleases, before they lose the membrane integrity. Such changes are due to the loss of DNA or fragmentation of the nucleus into apoptotic bodies. Flow cytomeric analysis of a population of cells can reveal the appearance of a hypodiploid population and changes in the stages of the cell cycle.
AMVN induces changes in the cell cycle pattern and it can be modified either by calcitriol or ST-630. […] AMVN-derived peroxyl radicals primarily cause damage to the DNA and repair of DNA is accomplished during the G1 or G2 block. When keratinocytes were treated with various concentrations of ST-630 or calcitriol, and subsequently exposed to AMVN there was a considerable reduction in the level of hypodiploid cells. This effect was concentration-dependent. […] The highest concentration of calcitriol used, i.e. 500 nM reduced the hypodiploidy by 60%. […] 10 nM of ST-630 blocked the hypodiploidy by 60%.
A general note: In flow cytometry, cells or beads pass a laser one at a time.

The subject of data set [7] is cultured human keratinocytes. Briefly: 3H-thymidine incorporation into keratinocyte DNA (proliferation). Format: cell-based. The conditions noted are these: 42 h and 66 h after initial dosing with 10^-8 M. As to the method:
Two experimental approaches were performed to assess the effect of ST-630 on the proliferation of cultured human keratinocytes. The first one was the ^3H-thymidine incorporation experiments that involved the use of a radiolabeled nucleotide which is specifically found in newly synthesized DNA molecules only. The second approach used in this study was the basal cell count. Although it is tedious, the second method is a more definitive way to determine cellular proliferation. Our results clearly establish the potency and the long-lasting effects of ST-630 in inhibiting cellular proliferation as determined by ^3H-thymidine and basal cell count.
A general note: Uptake of a labelled nucleoside into DNA is a usual measure of proliferation.

Regarding `C=C1/C(=C\C=C2/CCC[C@]3(C)[C@@H]([C@H](C)CCCC(C)(C)O)CC[C@@H]23)C[C@@H](O)C[C@@H]1O` [calcitriol, reference compound], the effect on chemotaxis entry in data set [1] is listed as “inhibitory”. In addition, in data set [2], the “metabolism in cultured keratinocytes” value was “rapidly metabolized”. Also, the “antibacterial activity (inhibition zone)” value in data set [3] was “Neither DMSO nor calcitriol exerted any antibacterial activity”. Moreover, the “superoxide release with known stimulants (FLPM, PMA, opsonized zymosan)” value in data set [4] was “act to prime for supertoxide release”. The “concentration giving maximum antioxidant effectiveness/protection against AMVN-induced oxidation” value in data set [5] (PnA-labeled keratinocytes, 0.5 mM AMVN, 1 hr, 37° C.) was 25 to 50 nM. Also, the “concentration-dependency of the protective effect” value in data set [5] (PnA-labeled keratinocytes, AMVN) is given as “two-phase protection pattern”. The results for the “reduction of AMVN-induced hypodiploidy” value in data set [6] (10 nM) and in data set [6] (500 nM) were 40% and 60%, respectively. The “effect on cell cycle” value in data set [6] (10 nM, then AMVN) is “blocked the cells at the G2/M phase”. Also, in data set [7], the “inhibitory (antiproliferative) activity with time” value is listed as “diminished with time”.
`Cc1c(C)c2c(c(C)c1O)CC[C@@](C)(CCC[C@H](C)CCC[C@H](C)CCCC(C)C)O2` [vitamin E, Alpha-Tocopherol, reference compound]: the “antioxidant action compared with the other compounds” value in data set [5] (concentrations 250 and 500 nm) was “comparable to that of ST-630”.
